Several values for one entry are separate records, joined by “and”; a condition that tells them apart may be missing. Equal values may be shown once. Read-outs that look alike come from different tables or passages of the source.
Experiments:
Colo205 = experiment: MTS assay, Colo205 colon adenocarcinoma cells; type: cell-based; conditions: for IC50: MTS, 24 h treatment; for viability at 50 µM: COLO 205, read-out: Cell viability percentage, Colo205
Procedure: (§1) Hepatocellular carcinoma (Hep3B and HepG2), cervical adenocarcinoma (HeLa), breast carcinoma (MCF-7), melanoma (B16F1), colorectal adenocarcinoma (Caco-2), and colon adenocarcinoma (Colo205), as well as human hepatic stellate (LX-2) in addition to the normal cell line (Hek293T), were used as cancer and normal cell lines and were cultured in RPMI-1640 media and supplemented with 10.0% fetal bovine serum, 1.0% l-glutamine and 1.0% Penicillin/Streptomycin antibiotics. After that, the cells matured in a moist atmosphere with 5.0% CO2 at 37 °C. In a 96-well plate, the cells were seeded at 2.5 × 10^4 cells/well. After 72 h, the cells were confluent, the media was changed, and then the cells were incubated with various concentrations (300, 100, 50, 10, and 1 µM), as well as lower concentrations (500, 100, and 50 nM) were used, especially for compound 2e against the B16-F1 cancer cell line to calculate accurate IC50 values for the evaluated compounds (2a–2f) for 24 h. The viability of cells was assessed by the Cell Tilter 96® Aqueous One Solution Cell Proliferation (MTS) Assay according to the manufacturer’s procedures (Promega Corporation, Madison, WI). However, at the end of the treatment, about 20 μl/100 μl of MTS solution/media was added to each well and for 2 h, they were incubated at 37 °C. Finally, the absorbance was measured at 490 nm.

B16F1 [1] = experiment: MTS assay, B16F1 melanoma cells; type: cell-based; conditions: for IC50: MTS, 24 h treatment
Procedure: as §1

Hep3B = experiment: MTS assay, Hep3B hepatocellular carcinoma cells; type: cell-based; conditions: 24 h treatment
Procedure: as §1

[2] = tested on: B16F1, Colo205, HepG2, and HeLa cancer cell lines; experiment: MTS assay, IC50 range over a panel of cancer cell lines; type: cell-based
Procedure: as §1

HeLa = experiment: MTS assay, HeLa cervical adenocarcinoma cells; type: cell-based, Human; conditions: 24 h treatment
Procedure: as §1

MCF-7 = experiment: MTS assay, MCF-7 breast carcinoma cells; type: cell-based, Human
Procedure: as §1

CaCo-2 = experiment: MTS assay, CaCo-2 colorectal adenocarcinoma cells; type: cell-based
Procedure: as §1

HepG2 = experiment: MTS assay, HepG2 hepatocellular carcinoma cells; type: cell-based; conditions: for viability at 50 µM: read-out: Cell viability percentage, HepG2; for IC50: MTS, 24 h treatment
Procedure: as §1

Hek293t = experiment: MTS assay, normal cell line Hek293t; type: cell-based; conditions: 24 h treatment
Procedure: as §1

B16F1 [3] = experiment: MTS assay, B16F1 melanoma cells; type: cell-based; conditions: compound versus its nano-emulgel at 1, 0.5, 0.1, 0.05, and 0.01 µM
[4] = tested on: human hepatic stellate cell (HSC) line LX-2; experiment: Anti-fibrotic activity, MTS viability of LX-2 cells; type: cell-based; conditions: 1 µM
Procedure: Hepatocellular carcinoma (Hep3B and HepG2), cervical adenocarcinoma (HeLa), breast carcinoma (MCF-7), melanoma (B16F1), colorectal adenocarcinoma (Caco-2), and colon adenocarcinoma (Colo205), as well as human hepatic stellate (LX-2) in addition to the normal cell line (Hek293T), were used as cancer and normal cell lines and were cultured in RPMI-1640 media and supplemented with 10.0% fetal bovine serum, 1.0% l-glutamine and 1.0% Penicillin/Streptomycin antibiotics. After that, the cells matured in a moist atmosphere with 5.0% CO2 at 37 °C. In a 96-well plate, the cells were seeded at 2.5 × 10^4 cells/well. […] The viability of cells was assessed by the Cell Tilter 96® Aqueous One Solution Cell Proliferation (MTS) Assay according to the manufacturer’s procedures (Promega Corporation, Madison, WI). […] Finally, the absorbance was measured at 490 nm.
To explore the anti-fibrotic effects of these compounds on human hepatic stellate cell (HSC) line LX-2, the viability of LX-2 cells following various compounds' treatment was determined by the MTS assay.

[5] = Homo sapiens, MCF7, 24 h treatment
[6] = Homo sapiens, Caco-2, 24 h treatment

Row | SMILES | IC50 (Colo205; Homo sapiens, COLO 205, 24 h) | IC50 (Colo205) | IC50 (B16F1 [1]; Mus musculus, B16-F1) | IC50 (Hep3B; Homo sapiens, Hep3B) | IC50 (HeLa; Homo sapiens, HeLa) | IC50 (MCF-7; [5]) | IC50 (CaCo-2; [6]) | IC50 (HepG2; Homo sapiens, HepG2) | IC50 (B16F1 [1]) | IC50 (Hep3B) | IC50 (HeLa) | IC50 (MCF-7; 24 h treatment) | IC50 (CaCo-2; 24 h treatment) | IC50 (HepG2) | IC50 (Hek293t; Homo sapiens, HEK-293T) | IC50 (Hek293t) | also measured
1 | COc1cc(NC(=O)c2c(-c3ccccc3)noc2C)c(OC)cc1Cl [2a, N-(4–Chloro-2,5-dimethoxyphenyl)-5-methyl-3-phenylisoxazole-4–Carboxamide] | 9.18 µM | 9.18 ± 0.88 µM | 29.7 ± 2.12 µM | > 200 µM | 40.8 ± 1.25 µM | > 200 µM | 129 ± 2.47 µM | 7.55 ± 0.79 µM |  |  |  |  |  |  | 2.54 ± 1.4 µM |  | viability at 50 µM (Colo205; Homo sapiens): 39.4%; IC50 ([2]; range over five cancer cell lines, read-out: IC50 range on five cancer cell lines): 7.54 to 129 µM; IC50 ([2]; range over four cancer cell lines, read-out: IC50 range against B16F1, Colo205, HepG2, and HeLa): 7.55 to 40.9 µM; viability at 50 µM (HepG2; Homo sapiens, HepG2): 29.2%
2 | Cc1onc(-c2ccccc2)c1C(=O)Nc1cccc(C(F)(F)F)c1 [2b, 5-Methyl-3-phenyl-N-(3-(trifluoromethyl)phenyl) isoxazole-4–Carboxamide] |  | > 200 µM |  |  |  |  |  |  | 42.9 ± 1.55 µM | > 200 µM | > 200 µM | > 200 µM | > 200 µM | 53.6 ± 2.04 µM |  | 148 ± 2.74 µM | 
3 | COc1ccccc1Oc1ccc(NC(=O)c2c(-c3ccccc3)noc2C)cc1 [2c, N-(4-(2-Methoxyphenoxy)phenyl)-5-methyl-3-phenylisoxazole-4–Carboxamide] | 183 ± 2.05 µM |  | 21.1 ± 0.78 µM | > 200 µM | > 200 µM | > 200 µM | > 200 µM | 120 ± 2.19 µM |  |  |  |  |  |  | 20.2 ± 1.32 µM |  | melting point: 179 to 180 °C
4 | CSc1ccc(NC(=O)c2c(-c3ccccc3)noc2C)cc1 [2d, 5-Methyl-N-(4-(methylthio)phenyl)-3-phenylisoxazole-4–Carboxamide] | 216.4 ± 1.58 µM |  | 39.8 ± 1.45 µM | > 200 µM | > 200 µM | > 200 µM | > 200 µM | 37.9 ± 2.07 µM |  |  |  |  |  |  | > 200 µM |  | melting point: 144 to 146 °C
5 | Cc1onc(-c2ccccc2)c1C(=O)Nc1ccc(OC(F)(F)F)cc1 [2e, 5-Methyl-3-phenyl-N-(4-(trifluoromethoxy)phenyl) isoxazole-4–Carboxamide] |  | > 200 µM |  |  |  |  |  |  | 0.079 µM | > 200 µM | > 200 µM | > 200 µM | > 200 µM | > 200 µM |  | 190 ± 2.67 µM | Cell viability percentage, B16F1 (B16F1 [1]; 50 µM): 18.42%; IC50 (B16F1 [3]): 0.079 µM
6 | O=c1[nH]cc(F)c(=O)[nH]1 [5-FU] |  |  |  |  |  |  |  |  |  |  |  |  |  |  |  |  | Cellular viability of LX-2 [4]: 95% and 94.64%

Now from value to compound, other results behind:

Row | IC50 (Colo205; Homo sapiens, COLO 205, 24 h) | IC50 (Colo205) | IC50 (B16F1 [1]; Mus musculus, B16-F1) | IC50 (Hep3B; Homo sapiens, Hep3B) | IC50 (HeLa; Homo sapiens, HeLa) | IC50 (MCF-7; [5]) | IC50 (CaCo-2; [6]) | IC50 (HepG2; Homo sapiens, HepG2) | IC50 (B16F1 [1]) | IC50 (Hep3B) | IC50 (HeLa) | IC50 (MCF-7; 24 h treatment) | IC50 (CaCo-2; 24 h treatment) | IC50 (HepG2) | SMILES | IC50 (Hek293t; Homo sapiens, HEK-293T) | IC50 (Hek293t) | also measured
7 |  | 75.4 ± 2.41 µM |  |  |  |  |  |  | 12.7 ± 1.01 µM | 54.6 ± 2.11 µM | > 200 µM | > 200 µM | > 200 µM | 38.4 ± 1.07 µM | Cc1onc(-c2ccccc2)c1C(=O)Nc1ccc(-c2cccs2)cc1 [2f, 5-Methyl-3-phenyl-N-(4-(thiophen-2-yl)phenyl) isoxazole-4–Carboxamide] |  | 7.91 ± 0.61 µM | Cell viability percentage, B16F1 (B16F1 [1]; 50 µM): 34.03%; Cellular viability of LX-2 [4]: 66.55%
8 |  |  | 0.056 µM |  |  |  |  |  |  |  |  |  |  |  | COc1cccc2c1C(=O)c1c(O)c3c(c(O)c1C2=O)C[C@@](O)(C(=O)CO)C[C@@H]3O[C@H]1C[C@H](N)[C@H](O)[C@H](C)O1 [Dox, Doxorubicin, reference compound] |  |  | viability at 50 µM (Colo205; Homo sapiens): 9.89%; viability at 50 µM (B16F1 [1]; Mus musculus, B16-F1, 50 µM, read-out: Cell viability percentage, B16F1): 21.8%; viability at 50 µM (HepG2; Homo sapiens, HepG2): 9.46%
